Experimental data from ChEMBL document CHEMBL1153710, “Synthesis, stereochemistry and antimicrobial studies of novel oxime ethers of aza/diazabicycles” (2009).
≈ marks a conversion by molar mass, not a printed value.

Experiments:
[1] = system: Rhizopus; assay: Antifungal activity against Rhizopus sp. by twofold serial dilution method; assay type: functional
[2] = system: Aspergillus flavus; assay: Antifungal activity against Aspergillus flavus by twofold serial dilution method; assay type: functional
[3] = system: Candida albicans; assay: Antifungal activity against Candida albicans by twofold serial dilution method; assay type: functional
[4] = system: Pseudomonas aeruginosa; assay: Antibacterial activity against Pseudomonas aeruginosa by twofold serial dilution method; assay type: functional
[5] = system: Candida; assay: Antifungal activity against Candida 51 by twofold serial dilution method; assay type: functional
[6] = system: Aspergillus niger; assay: Antifungal activity against Aspergillus niger by twofold serial dilution method; assay type: functional
[7] = system: Salmonella enterica; assay: Antibacterial activity against Salmonella typhi by twofold serial dilution method; assay type: functional, Salmonella enterica subsp. enterica serovar Typhi
[8] = system: Klebsiella pneumoniae; assay: Antibacterial activity against Klebsiella pneumoniae by twofold serial dilution method; assay type: functional
[9] = system: Staphylococcus aureus; assay: Antibacterial activity against Staphylococcus aureus by twofold serial dilution method; assay type: functional
[10] = system: Escherichia coli; assay: Antibacterial activity against Escherichia coli by twofold serial dilution method; assay type: functional

| Compound | MIC [1] [µg/mL] | MIC [2] [µg/mL] | MIC [3] [µg/mL] | MIC [4] [µg/mL] | MIC [5] [µg/mL] | MIC [6] [µg/mL] | MIC [7] [µg/mL] | MIC [8] [µg/mL] | MIC [9] [µg/mL] | MIC [10] [µg/mL] |
| --- | --- | --- | --- | --- | --- | --- | --- | --- | --- | --- |
| Clc1ccccc1C1NC(c2ccccc2Cl)C2CCCC1C2=NOCc1ccccc1 (configuration not stated) | 50 (≈ 107 µM) | 12.5 (≈ 26.9 µM) | 12.5 (≈ 26.9 µM) | 6.25 (≈ 13.4 µM) | 6.25 (≈ 13.4 µM) | 50 (≈ 107 µM) | 50 (≈ 107 µM) | 50 (≈ 107 µM) | 12.5 (≈ 26.9 µM) | 12.5 (≈ 26.9 µM) |
| c1ccc(CON=C2C3CCCC2C(c2ccccc2)NC3c2ccccc2)cc1 (configuration not stated) | > 200 | 200 (≈ 504 µM) | 100 (≈ 252 µM) | 200 (≈ 504 µM) | 200 (≈ 504 µM) | > 200 | 200 (≈ 504 µM) | > 200 | > 200 | 100 (≈ 252 µM) |
| Fc1cccc(C2NC(c3cccc(F)c3)C3CCCC2C3=NOCc2ccccc2)c1 (configuration not stated) | 50 (≈ 116 µM) | 100 (≈ 231 µM) | 50 (≈ 116 µM) | 25 (≈ 57.8 µM) | 200 (≈ 462 µM) | 100 (≈ 231 µM) | 100 (≈ 231 µM) | 100 (≈ 231 µM) | 100 (≈ 231 µM) | 25 (≈ 57.8 µM) |
| Fc1ccc(C2NC(c3ccc(F)cc3)C3CCCC2C3=NOCc2ccccc2)cc1 (configuration not stated) | 50 (≈ 116 µM) | 100 (≈ 231 µM) | 25 (≈ 57.8 µM) | 25 (≈ 57.8 µM) | 100 (≈ 231 µM) | 50 (≈ 116 µM) | 50 (≈ 116 µM) | 50 (≈ 116 µM) | 100 (≈ 231 µM) | 25 (≈ 57.8 µM) |
| Clc1ccc(C2NC(c3ccc(Cl)cc3)C3CCCC2C3=NOCc2ccccc2)cc1 (configuration not stated) | 12.5 (≈ 26.9 µM) | 50 (≈ 107 µM) | 25 (≈ 53.7 µM) | 12.5 (≈ 26.9 µM) | 50 (≈ 107 µM) | 25 (≈ 53.7 µM) | 25 (≈ 53.7 µM) | 100 (≈ 215 µM) | 25 (≈ 53.7 µM) | 50 (≈ 107 µM) |
| Cc1ccc(C2NC(c3ccc(C)cc3)C3CCCC2C3=NOCc2ccccc2)cc1 (configuration not stated) | 25 (≈ 58.9 µM) | 100 (≈ 236 µM) | 50 (≈ 118 µM) | 25 (≈ 58.9 µM) | 100 (≈ 236 µM) | 100 (≈ 236 µM) | 100 (≈ 236 µM) | 200 (≈ 471 µM) | 25 (≈ 58.9 µM) | 100 (≈ 236 µM) |
| COc1ccc(C2NC(c3ccc(OC)cc3)C3CCCC2C3=NOCc2ccccc2)cc1 (configuration not stated) | 50 (≈ 110 µM) | 100 (≈ 219 µM) | 50 (≈ 110 µM) | 50 (≈ 110 µM) | 50 (≈ 110 µM) | 100 (≈ 219 µM) | 50 (≈ 110 µM) | 100 (≈ 219 µM) | 100 (≈ 219 µM) | 50 (≈ 110 µM) |
| CN1C(c2ccccc2)C2CCCC(C2=NOCc2ccccc2)C1c1ccccc1 (configuration not stated) | 50 (≈ 122 µM) | > 200 | 50 (≈ 122 µM) | 100 (≈ 244 µM) | 200 (≈ 487 µM) | 200 (≈ 487 µM) | 100 (≈ 244 µM) | 200 (≈ 487 µM) | 200 (≈ 487 µM) | 100 (≈ 244 µM) |
| C[C@@H]1[C@H](O)[C@@H](C)/C=C/C=C/C=C/C=C/C=C/C=C/C=C/[C@H](O[C@@H]2O[C@H](C)[C@@H](O)[C@H](N)[C@@H]2O)C[C@@H]2O[C@](O)(C[C@@H](O)C[C@@H](O)[C@H](O)CC[C@@H](O)C[C@@H](O)CC(=O)O[C@H]1C)C[C@H](O)[C@H]2C(=O)O [AMPHOTERICIN B] | 25 (≈ 27.1 µM) | 50 (≈ 54.1 µM) | 25 (≈ 27.1 µM) |  | 25 (≈ 27.1 µM) | 50 (≈ 54.1 µM) |  |  |  |  |
| O=C(O)c1cn(C2CC2)c2cc(N3CCNCC3)c(F)cc2c1=O [CIPROFLOXACIN] |  |  |  |  |  |  | 50 (≈ 151 µM) |  |  | 25 (≈ 75.4 µM) |
